Format in all cases: cell-based, human
The subject of data set [1] is HepG2 cells. The data set can be described thus: Cell viability by MTT assay in HepG2 cells without hydrogen peroxide (effect on cell proliferation itself). Particulars: without hydrogen peroxide solution; result in words. Here is the method: (§1) A human liver cancer-derived cell line (HepG2: HB-8065™, Lot No. 70029112) was obtained from the American Type Culture Collection, and Dulbecco's Modified Eagle Medium (Thermo Fisher Scientific K.K.) containing 10% FBS was used as the basal medium. The cells were cultured in a 37°C, 5% CO2 incubator, and cells passaged for 17 to 22 generations were used for the experiments.
(§2) A cell suspension adjusted to an initial cell concentration of 2 x 10^4 cells/mL was seeded at 0.15 mL into a 96-well plate (Thermo Fisher Scientific K.K.).
(§3) After 20 hours of culture from seeding, alpha-lipoic acid trisulfide (LASSS) or alpha-lipoic acid trisulfide choline ester (LASSS-CE) was added to the medium in groups with a final concentration of 0.025 mM or 0.05 mM. Separately, a group to which only the solvent for LASSS or LASSS-CE (phosphate-buffered saline (PBS) containing 4% DMSO (FUJIFILM Wako Pure Chemical Corporation)) was added was designated as the solvent-added group. After 4 hours of culture following the sample addition, the medium of the above sample-added groups and the solvent-added group was replaced with a medium (not containing LASSS or LASSS-CE) to which hydrogen peroxide solution (FUJIFILM Wako Pure Chemical Corporation) had been added to a final concentration of 0.1 mM, thereby inducing hepatocyte damage. A group in which the same amount of PBS was added instead of hydrogen peroxide solution to the solvent-added group was designated as the control group. After culturing for 2 hours following the addition of hydrogen peroxide solution or PBS, cell viability was measured by the MTT assay to evaluate the extent of hepatocyte injury. In the table, SD represents standard deviation.
(§4) Furthermore, to evaluate the effect of LASSS and LASSS-CE on cell proliferation itself, a similar experiment was conducted by replacing the addition of hydrogen peroxide solution with the addition of the same amount of PBS, and the cell viability was measured by the MTT assay method.

Assay in data set [2]: as above
Particulars: human, hepg2 cells, PBS instead of hydrogen peroxide, control group = 100; for viability at 25 µM: Sample-added group (0.025 mM); for viability at 50 µM: Sample-added group (0.05 mM). Here is the method:
as §1, §2, §3, §4

Data set [3] concerns HepG2 cells. The experiment in a line: Cell viability by MTT assay in HepG2 cells with hepatocyte damage induced by hydrogen peroxide. The settings on record: HepG2 cells damaged by hydrogen peroxide; result in words. As for the experimental part:
as §1, §2
After 20 hours of culture from seeding, alpha-lipoic acid trisulfide (LASSS) or alpha-lipoic acid trisulfide choline ester (LASSS-CE) was added to the medium in groups with a final concentration of 0.025 mM or 0.05 mM. Separately, a group to which only the solvent for LASSS or LASSS-CE (phosphate-buffered saline (PBS) containing 4% DMSO (FUJIFILM Wako Pure Chemical Corporation)) was added was designated as the solvent-added group. […] After culturing for 2 hours following the addition of hydrogen peroxide solution or PBS, cell viability was measured by the MTT assay to evaluate the extent of hepatocyte injury. […]

By viability is commonly meant a read-out of living cells in per cent, often relative to untreated cells.

For the molecule `C[N+](C)(C)CCOC(=O)CCCCC1CCSSS1` (stereo not drawn) [LASSS-CE, alpha-lipoic acid trisulfide choline ester], in the data set on HepG2 cells [1], the “effect on the proliferation of HepG2 cells” value is listed as “did not affect the proliferation of HepG2 cells”. In data set [2], the viability at 25 µM worked out at 109% and the viability at 50 µM is 106%. In addition, the “cell viability compared to the hydrogen peroxide-added group” value in the data set on HepG2 cells [3] is given as “an improvement in cell viability was confirmed”.

Turning to `O=C(O)CCCCC1CCSSS1` (stereo not drawn) [LASSS, alpha-lipoic acid trisulfide], in the data set on HepG2 cells [1], the “effect on the proliferation of HepG2 cells” value is recorded as “did not affect the proliferation of HepG2 cells”. For the same molecule, in data set [2], the viability at 25 µM was determined as 102% and the viability at 50 µM turned out to be 102%. For the same molecule, in the data set on HepG2 cells [3], the “cell viability compared to the hydrogen peroxide-added group” value is “an improvement in cell viability was confirmed”.

(Values after patent EP4714441A1, “COMPOSITION FOR PREVENTING OR ALLEVIATING HEPATIC DYSFUNCTION” (KIRIN HOLDINGS KABUSHIKI KAISHA, priority 2023, dated 2025).)
